# According to patent US12012375B2, “Prostaglandin F2 alpha derivatives for decreasing intraocular pressure” (GURUS BIOPHARM LIMITED LIABILITY COMPANY, priority 2018, dated 2024):
# Key:
# 3T3-L1 cells [1] = test: Cytotoxicity, MTT assay of cell survival; type: cell-based; conditions: cultivated mice 3T3-L1 cells, 24 hours incubation
# Procedure: (§1) 3T3-L1 cells were incubated at 95% humidity, in the 5% CO2 atmosphere, at 37° C. Cultivation was performed in DMEM medium comprising 7% FCS, 2 mM of glutamine, 100 U/ml of penicillin, 100 μg/ml of streptomycin and 0.25 μg/ml of amphotericin B. Cells were subcultured every 48-72 hours. For the purpose of suspending the cells were incubated in Versene's solution within 1 minute and in Trypsin-EDTA solution within 1 minute (0.25%).
# (§2) Cells were inoculated by 30 thousand into wells of 96-well plate (monolayer) in 100 μl of medium for MTT-test. After 24 hours of cultivation 100 μl of test substances in the medium used for cell culture were added to the cells with replacement of culture medium with a new one. Cells were incubated with test substances for 24 hours. Cells, to which 100 μl of medium used for cell culture were added to, were used as […].
# (§3) Assessment of cell survival in the culture using the MTT assay After the incubation, the medium was removed from each well, and then 100 μl of MTT solution were added to each well (0.5 mg/ml of MTT, 3.5 mg/ml of D-glucose in Hanks' solution). The plate was placed into CO2-incubator (Ependorf, Germany) for 1.5 h. After that, MTT was removed and 100 μl of DMSO were added to each well and mixed for 2 minutes in a shaker at 550 rpm. Then, the solution optical density was determined at the wavelength of 576 nm and 620 nm using a plate reader (EFOS 9305, OAO MZ Sapphir).
# 3T3-L1 cells [2] = test: Nitric oxide generation (modified Griess method); type: cell-based, mice; conditions: for NO generation, % to control: mice 3T3-L1 cells, concentration of 100 μM, 20 hours
# Procedure: as §1, with “solution within 2-3 minutes and in” for “solution within 1 minute and in”, “Trypsin-EDTA solution (0.25%).” for “Trypsin-EDTA solution within 1 minute (0.25%).”
# Cells were inoculated by 30 thousand into wells (monolayer) of 96-well plate in 100 μl of medium. Incubation with substances lasted 20 hours. After that, medium aliquot was sampled from each well, and NO concentration was determined by modified Griess method. 12.5 μl of 0.04% sulfanilamide water solution were added to 75 μl of test medium in wells of 96-well plate for EIA, held within 10 minutes at room temperature protected from light, then, 12.5 μl of 2% naphthylethylenediamine solution in 3M of HCl were added, held again for 10 minutes at room temperature protected from light, then the optical absorption was determined at the wavelength of 540 nm.
# normotensive rabbits = test: Reducing intraocular pressure after instillation in normotensive rabbits; type: in vivo, chinchilla rabbits; conditions: for IOP reduction: single instillation of 2 drops into both eyes, maximum value of 5 animals' average data within 6 hours
# Procedure: The study was performed on chinchilla rabbits with a mass of 2.5-3 kg. IOP was measured by automatic manual veterinary tonometer Tonovet (Icare, Finland).
# 2 groups of rabbets were used for testing each sample:
# 5 animals instilled with a single dose of sample into both eyes.
# 5 animals instilled with a single dose of normal saline into both eyes.
# All test samples were instilled by 2 drops by a disposable pipette. IOP was measured before instillation and further, every hour within 6 hours. All tested substances were capable of reducing intraocular pressure in normotensive rabbits.
# [3] = Cytotoxicity, MTT assay of cell survival; type: cell-based; conditions: mouse, cultivated mice 3T3-L1 cells, 24 hours incubation
# Procedure: as §1, §2, §3
# 3T3-L1 cells [4] = test: Increase of intracellular calcium concentration (Calcium Green fluorescence); type: cell-based, mice; conditions: 67 μM stated for the reference substances, for 10 minutes
# Procedure: 3T3-L1 cells were cultivated in DMEM medium with addition of 10% fetal calf serum (FCS), 4 mM of L-glutamine, 100 U/ml of penicillin, 100 μg/ml of streptomycin, 2.5 μg/ml of amphotericin B. Cells were cultured in the atmosphere of 5% CO2, 95% humidity at 37° C. Cell density at the time of experiment was 7000 per well of a 96-well plate, Calcium Green dye (1.5 mM, loading in 0.4% Pluronic F-62 in incubation medium without BSA for 1 hour at 37° C., triple washing of 200 μl of incubation medium after loading), incubation medium: Hanks' solution, 1 g/l of D-glucose, 1 mg/ml of fat-free BSA, introduction of substances in ethanol (<0.5% final concentration), incubation at 25° C., detecting at the excitation wavelength 485 nm, emission wavelength 535 nm.
Compound,EC50 (3T3-L1 cells [1]) [µM],"NO generation, % to control (3T3-L1 cells [2]) [%]",IOP reduction (normotensive rabbits) [mm Hg],calcium sensor fluorescence increase relative to control (3T3-L1 cells [4]) [AU],other results
"CCCCCC(O)C=CC1C(O)CC(O)C1CC=CCCCC(=O)NC(CO)C(=O)O [Compound 2, Prostaglandin F2α Amide with L-Serine]",> 200,25,,,
"CCCCC[C@H](O)/C=C/[C@@H]1[C@@H](C/C=C\CCCC(=O)NC2CC2)[C@@H](O)C[C@H]1O [Compound 6, Prostaglandin F2α Amide with Cyclopropylamine]",124 ± 2,5,3.30,,ability to reduce intraocular pressure (in words) (normotensive rabbits): more prominent
"CCCCCC(O)C=CC1C(O)CC(O)C1CC=CCCCC(=O)N1CCCC1CO [Compound 7, Prostaglandin F2a Amide with L-Prolinol]",104 ± 2,15,,,
"CCCCC[C@H](O)/C=C/[C@@H]1[C@@H](C/C=C\CCCC(=O)NCCOC(=O)NCCO[N+](=O)[O-])[C@@H](O)C[C@H]1O [Compound 11, Prostaglandin F2α Amide with 2-Aminoethyl-[2-(Nitroxy)Ethyl]Carbamate]",,28,1.50,,EC50 at 24 h [3]: 184 ± 3 µM
"CCCCC[C@H](O)/C=C/[C@@H]1[C@@H](C/C=C\CCCC(=O)NCCO)[C@@H](O)C[C@H]1O [prostamide F2, prostaglandin F2α ethanolamide]",,,,185,
Prostaglandin F2α Amide with L-Nitroserine Isopropyl Ether [Compound 5],195 ± 2,,1.20,,
Prostaglandin F2α Amide with L-Nitroserine [Compound 1],226.4 ± 2,7,,,
Prostaglandin F2α Amide with L-Serine Isopropyl Ether [Compound 3],144 ± 3,15,3.20,405,"ability to reduce intraocular pressure (in words) (normotensive rabbits): more prominent; nitric oxide level increase relative to control (3T3-L1 cells [2]; 3T3-L1 cells, 25 μM): 60%; concentration of maximum activity (most effective concentration) for induction of nitrogen oxide generation (3T3-L1 cells [2]; 3T3-L1 cells, tested 25 to 100 μM): 25 µM"
Prostaglandin F2α Amide with γ-Aminobutyric Acid Nitroethanolamide [Compound 8],,22,2.00,,
prostaglandin F2α,,,,195,
